In paper PMC11882969 (Nature Communications, 2025):
“And” between values parts separate entries of the source, which are not always exact repeats. Equal entries are not always repeated.

What was measured:
Type in all cases: cell-based
[1] = biological target: panel of 320 non-olfactory GPCRs (Homo sapiens, UniProt Q13639)
[2] = biological target: panel of 320 non-olfactory GPCRs (Homo sapiens, UniProt P24530)
[3] = biological target: panel of 320 non-olfactory GPCRs (Homo sapiens, UniProt Q9HB89)
[4] = biological target: panel of 320 non-olfactory GPCRs (Homo sapiens, UniProt Q9H228)
[5] = biological target: panel of 320 non-olfactory GPCRs (Homo sapiens, UniProt P41586)
[6] = biological target: panel of 320 non-olfactory GPCRs (Homo sapiens, UniProt P41145)
[7] = biological target: panel of 320 non-olfactory GPCRs (Homo sapiens, UniProt P49146)
[8] = biological target: panel of 320 non-olfactory GPCRs (Homo sapiens, UniProt Q9NS67)
[9] = biological target: panel of 320 non-olfactory GPCRs (Homo sapiens, UniProt P08908)
[10] = biological target: panel of 320 non-olfactory GPCRs (Homo sapiens, UniProt O95977)
[11] = biological target: panel of 320 non-olfactory GPCRs (Homo sapiens, UniProt Q9BZJ7)
[12] = biological target: panel of 320 non-olfactory GPCRs (Homo sapiens, UniProt P47872)
[13] = biological target: panel of 320 non-olfactory GPCRs (Homo sapiens, UniProt P32248)
[14] = biological target: panel of 320 non-olfactory GPCRs (Homo sapiens, UniProt Q9H1Y3)
[15] = biological target: panel of 320 non-olfactory GPCRs (Homo sapiens, UniProt P30939)
[16] = biological target: panel of 320 non-olfactory GPCRs (Homo sapiens, UniProt P30559)
[17] = biological target: panel of 320 non-olfactory GPCRs (Homo sapiens, UniProt Q7Z602)
[18] = biological target: panel of 320 non-olfactory GPCRs (Homo sapiens, UniProt Q8NFJ5)
[19] = biological target: panel of 320 non-olfactory GPCRs (Homo sapiens, UniProt Q969V1)
[20] = biological target: panel of 320 non-olfactory GPCRs (Homo sapiens, UniProt O60883)
[21] = biological target: panel of 320 non-olfactory GPCRs (Homo sapiens, UniProt P49286)
[22] = biological target: panel of 320 non-olfactory GPCRs (Homo sapiens, UniProt P18089)
[23] = biological target: panel of 320 non-olfactory GPCRs (Homo sapiens, UniProt Q16581)
[24] = biological target: panel of 320 non-olfactory GPCRs (Homo sapiens, UniProt Q8NGU9)
[25] = biological target: panel of 320 non-olfactory GPCRs (Homo sapiens, UniProt Q9H1C0)
[26] = biological target: panel of 320 non-olfactory GPCRs (Homo sapiens, UniProt P25024)
[27] = biological target: panel of 320 non-olfactory GPCRs (Homo sapiens, UniProt Q8WXD0)
[28] = biological target: panel of 320 non-olfactory GPCRs (Homo sapiens, UniProt Q9H244)
[29] = biological target: panel of 320 non-olfactory GPCRs (Homo sapiens, UniProt P22888)
[30] = biological target: panel of 320 non-olfactory GPCRs (Homo sapiens, UniProt Q99500)
[31] = biological target: panel of 320 non-olfactory GPCRs (Homo sapiens, UniProt Q96LB2)
[32] = biological target: panel of 320 non-olfactory GPCRs (Homo sapiens, UniProt P25100)
[33] = biological target: panel of 320 non-olfactory GPCRs (Homo sapiens, UniProt Q8IZF5)
[34] = biological target: panel of 320 non-olfactory GPCRs (Homo sapiens, UniProt P50406)
[35] = biological target: panel of 320 non-olfactory GPCRs (Homo sapiens, UniProt Q9UPC5)
[36] = biological target: panel of 320 non-olfactory GPCRs (Homo sapiens, UniProt Q9H3N8)
[37] = biological target: panel of 320 non-olfactory GPCRs (Homo sapiens, UniProt O14843)
Chain of panel of 320 non-olfactory GPCRs (Homo sapiens, UniProt O14843) (O14843 whole entry): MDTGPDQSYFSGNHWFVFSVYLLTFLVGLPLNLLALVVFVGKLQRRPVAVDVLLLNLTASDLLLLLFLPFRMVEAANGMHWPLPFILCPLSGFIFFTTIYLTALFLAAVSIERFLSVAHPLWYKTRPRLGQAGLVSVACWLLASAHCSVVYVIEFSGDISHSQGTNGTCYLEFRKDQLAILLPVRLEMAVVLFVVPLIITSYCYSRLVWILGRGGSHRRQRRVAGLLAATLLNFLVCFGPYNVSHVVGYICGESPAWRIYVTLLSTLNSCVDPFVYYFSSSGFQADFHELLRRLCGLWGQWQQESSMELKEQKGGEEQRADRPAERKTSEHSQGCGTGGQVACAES

Chain of panel of 320 non-olfactory GPCRs (Homo sapiens, UniProt O60883) (O60883 26-481): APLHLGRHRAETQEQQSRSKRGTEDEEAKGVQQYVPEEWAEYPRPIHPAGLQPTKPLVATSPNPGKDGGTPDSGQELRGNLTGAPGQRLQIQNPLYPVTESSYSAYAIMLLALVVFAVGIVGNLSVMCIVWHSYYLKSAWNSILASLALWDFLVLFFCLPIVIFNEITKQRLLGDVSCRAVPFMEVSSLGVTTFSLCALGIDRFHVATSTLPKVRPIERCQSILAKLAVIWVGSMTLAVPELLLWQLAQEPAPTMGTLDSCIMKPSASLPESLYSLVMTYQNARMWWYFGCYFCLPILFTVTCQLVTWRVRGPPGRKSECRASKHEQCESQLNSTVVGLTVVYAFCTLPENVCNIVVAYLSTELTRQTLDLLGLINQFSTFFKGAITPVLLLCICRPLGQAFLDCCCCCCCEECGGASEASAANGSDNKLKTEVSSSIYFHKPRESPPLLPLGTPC
Chain of panel of 320 non-olfactory GPCRs (Homo sapiens, UniProt Q7Z602) (Q7Z602 whole entry): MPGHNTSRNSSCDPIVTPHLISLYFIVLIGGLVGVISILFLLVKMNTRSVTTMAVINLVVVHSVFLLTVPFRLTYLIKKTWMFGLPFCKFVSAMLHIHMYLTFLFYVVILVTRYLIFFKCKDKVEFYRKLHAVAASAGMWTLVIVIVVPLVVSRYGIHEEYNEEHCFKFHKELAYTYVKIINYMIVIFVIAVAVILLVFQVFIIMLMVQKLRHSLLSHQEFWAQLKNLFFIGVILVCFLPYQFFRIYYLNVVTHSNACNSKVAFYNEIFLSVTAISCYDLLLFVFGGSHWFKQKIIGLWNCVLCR
Chain of panel of 320 non-olfactory GPCRs (Homo sapiens, UniProt Q13639) (Q13639 whole entry): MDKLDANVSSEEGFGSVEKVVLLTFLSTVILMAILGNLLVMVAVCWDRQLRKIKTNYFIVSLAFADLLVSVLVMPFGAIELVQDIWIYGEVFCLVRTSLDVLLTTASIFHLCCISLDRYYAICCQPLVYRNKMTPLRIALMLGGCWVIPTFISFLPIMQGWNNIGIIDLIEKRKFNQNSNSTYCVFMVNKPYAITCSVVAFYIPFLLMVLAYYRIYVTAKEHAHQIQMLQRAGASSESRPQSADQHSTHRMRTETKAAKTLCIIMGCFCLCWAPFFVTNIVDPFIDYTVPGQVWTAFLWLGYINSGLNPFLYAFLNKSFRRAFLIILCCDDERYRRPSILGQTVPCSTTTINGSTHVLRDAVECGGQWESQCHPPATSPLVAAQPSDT
Chain of panel of 320 non-olfactory GPCRs (Homo sapiens, UniProt P30939) (P30939 whole entry): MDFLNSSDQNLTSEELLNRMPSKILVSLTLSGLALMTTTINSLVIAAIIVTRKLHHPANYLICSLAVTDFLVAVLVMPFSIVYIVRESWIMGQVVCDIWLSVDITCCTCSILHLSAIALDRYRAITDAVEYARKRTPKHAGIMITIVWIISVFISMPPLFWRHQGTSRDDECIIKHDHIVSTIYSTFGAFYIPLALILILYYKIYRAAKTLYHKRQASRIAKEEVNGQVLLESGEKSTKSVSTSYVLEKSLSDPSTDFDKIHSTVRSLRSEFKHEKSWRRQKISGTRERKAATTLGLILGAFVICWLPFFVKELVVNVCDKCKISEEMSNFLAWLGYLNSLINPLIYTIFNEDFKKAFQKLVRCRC
Chain of panel of 320 non-olfactory GPCRs (Homo sapiens, UniProt Q16581) (Q16581 whole entry): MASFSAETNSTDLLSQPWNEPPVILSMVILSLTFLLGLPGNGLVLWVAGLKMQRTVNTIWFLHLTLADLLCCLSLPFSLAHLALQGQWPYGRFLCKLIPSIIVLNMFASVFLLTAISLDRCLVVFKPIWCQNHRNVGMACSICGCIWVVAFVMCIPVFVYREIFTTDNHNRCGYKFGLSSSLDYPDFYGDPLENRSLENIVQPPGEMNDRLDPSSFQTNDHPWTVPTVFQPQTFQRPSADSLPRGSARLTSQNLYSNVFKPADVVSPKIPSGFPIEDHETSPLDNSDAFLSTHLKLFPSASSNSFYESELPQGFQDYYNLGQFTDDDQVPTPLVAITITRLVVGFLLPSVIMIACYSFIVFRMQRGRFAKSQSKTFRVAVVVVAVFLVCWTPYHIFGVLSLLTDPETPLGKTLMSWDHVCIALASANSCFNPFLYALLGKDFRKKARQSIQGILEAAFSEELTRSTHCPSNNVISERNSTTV
Chain of panel of 320 non-olfactory GPCRs (Homo sapiens, UniProt P41145) (P41145 whole entry): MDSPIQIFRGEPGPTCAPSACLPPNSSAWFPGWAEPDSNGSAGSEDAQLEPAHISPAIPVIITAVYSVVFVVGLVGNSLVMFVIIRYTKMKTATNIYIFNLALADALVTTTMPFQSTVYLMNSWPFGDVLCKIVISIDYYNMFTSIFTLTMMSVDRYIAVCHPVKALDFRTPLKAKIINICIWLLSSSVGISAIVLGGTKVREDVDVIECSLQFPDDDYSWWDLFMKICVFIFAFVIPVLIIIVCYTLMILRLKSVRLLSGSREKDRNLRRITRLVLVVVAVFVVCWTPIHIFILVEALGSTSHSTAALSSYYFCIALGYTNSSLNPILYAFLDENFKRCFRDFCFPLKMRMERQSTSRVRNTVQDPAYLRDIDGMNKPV
Chain of panel of 320 non-olfactory GPCRs (Homo sapiens, UniProt P25100) (P25100 whole entry): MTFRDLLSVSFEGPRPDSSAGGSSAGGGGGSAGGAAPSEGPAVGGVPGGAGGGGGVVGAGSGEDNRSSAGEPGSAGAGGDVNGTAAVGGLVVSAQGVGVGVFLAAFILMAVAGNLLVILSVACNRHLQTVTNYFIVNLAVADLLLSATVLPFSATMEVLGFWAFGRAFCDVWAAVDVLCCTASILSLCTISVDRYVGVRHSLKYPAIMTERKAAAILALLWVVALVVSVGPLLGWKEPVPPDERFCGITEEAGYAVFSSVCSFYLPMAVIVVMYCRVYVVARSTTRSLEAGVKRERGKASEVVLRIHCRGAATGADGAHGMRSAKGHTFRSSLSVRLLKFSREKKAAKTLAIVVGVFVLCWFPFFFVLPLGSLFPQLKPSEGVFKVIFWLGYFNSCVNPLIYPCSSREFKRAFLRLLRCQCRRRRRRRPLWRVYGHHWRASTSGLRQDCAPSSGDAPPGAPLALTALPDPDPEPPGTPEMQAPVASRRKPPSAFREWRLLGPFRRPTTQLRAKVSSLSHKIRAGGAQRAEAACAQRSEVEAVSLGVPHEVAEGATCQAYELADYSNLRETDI
Chain of panel of 320 non-olfactory GPCRs (Homo sapiens, UniProt Q8WXD0) (Q8WXD0 whole entry): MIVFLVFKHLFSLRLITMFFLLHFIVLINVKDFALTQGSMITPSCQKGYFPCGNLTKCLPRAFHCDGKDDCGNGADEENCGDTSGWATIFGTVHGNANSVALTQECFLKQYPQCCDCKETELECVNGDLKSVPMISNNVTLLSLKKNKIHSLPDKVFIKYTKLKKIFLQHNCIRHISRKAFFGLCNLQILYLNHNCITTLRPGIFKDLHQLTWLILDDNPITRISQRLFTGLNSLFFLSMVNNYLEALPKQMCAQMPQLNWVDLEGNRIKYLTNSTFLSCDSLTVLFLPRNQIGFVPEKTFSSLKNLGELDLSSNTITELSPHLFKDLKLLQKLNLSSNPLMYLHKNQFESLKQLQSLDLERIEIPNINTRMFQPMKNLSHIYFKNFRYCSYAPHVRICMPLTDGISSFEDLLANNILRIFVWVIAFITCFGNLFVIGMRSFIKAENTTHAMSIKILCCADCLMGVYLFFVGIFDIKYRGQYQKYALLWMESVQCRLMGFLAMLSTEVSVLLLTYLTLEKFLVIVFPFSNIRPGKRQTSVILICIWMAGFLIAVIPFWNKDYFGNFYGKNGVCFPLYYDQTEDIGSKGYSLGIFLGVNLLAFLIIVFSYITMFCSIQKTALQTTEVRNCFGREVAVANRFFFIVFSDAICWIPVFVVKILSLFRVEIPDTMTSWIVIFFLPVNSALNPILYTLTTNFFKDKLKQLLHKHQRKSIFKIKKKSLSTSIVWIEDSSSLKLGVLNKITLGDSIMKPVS
Chain of panel of 320 non-olfactory GPCRs (Homo sapiens, UniProt P49146) (P49146 whole entry): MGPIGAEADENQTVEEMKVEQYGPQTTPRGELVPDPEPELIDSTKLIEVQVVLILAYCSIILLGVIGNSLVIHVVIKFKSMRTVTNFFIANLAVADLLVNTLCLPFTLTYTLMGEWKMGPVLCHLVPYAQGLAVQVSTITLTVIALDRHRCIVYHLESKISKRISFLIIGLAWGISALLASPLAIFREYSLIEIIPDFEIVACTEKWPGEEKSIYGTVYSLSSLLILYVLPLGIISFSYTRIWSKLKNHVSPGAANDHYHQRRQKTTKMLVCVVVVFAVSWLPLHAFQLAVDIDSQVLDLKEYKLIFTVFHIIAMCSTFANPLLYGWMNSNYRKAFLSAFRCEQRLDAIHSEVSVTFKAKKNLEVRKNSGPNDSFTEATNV
Chain of panel of 320 non-olfactory GPCRs (Homo sapiens, UniProt Q9H3N8) (Q9H3N8 whole entry): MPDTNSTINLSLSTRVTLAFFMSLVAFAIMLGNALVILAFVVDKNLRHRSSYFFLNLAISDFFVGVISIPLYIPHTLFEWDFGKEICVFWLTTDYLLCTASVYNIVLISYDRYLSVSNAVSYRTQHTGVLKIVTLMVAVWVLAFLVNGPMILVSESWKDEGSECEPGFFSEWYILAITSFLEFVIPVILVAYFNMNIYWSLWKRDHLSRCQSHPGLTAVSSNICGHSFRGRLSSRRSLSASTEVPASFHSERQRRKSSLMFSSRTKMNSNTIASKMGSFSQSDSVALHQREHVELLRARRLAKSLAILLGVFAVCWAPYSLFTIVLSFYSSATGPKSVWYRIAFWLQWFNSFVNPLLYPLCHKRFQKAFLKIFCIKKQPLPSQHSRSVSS

Q: Which results are given for `Cc1cc(C(=O)NC(C)(c2ccco2)c2ccco2)nn1-c1cccc(C(F)(F)F)c1` [‘4936]?
A: Fold of Basal RLU [1]: 1 fold and 1.6 fold and 0.9 fold; Fold of Basal RLU [2]: 0.9 and 0.7 and 0.5; Fold of Basal RLU [3]: 0.9 and 1.5; Fold of Basal RLU [4]: 1.2 and 1.9 and 1.3; Fold of Basal RLU [5]: 0.5 fold and 0.9 fold and 0.7 fold and 0.8 fold; Fold of Basal RLU [6]: 1.5 fold and 0.8 fold and 1 fold; Fold of Basal RLU [7]: 1.1 fold and 0.9 fold and 0.7 fold; Fold of Basal RLU [8]: 0.5 and 0.7 and 0.6; Fold of Basal RLU [9]: 0.8 fold and 0.7 fold and 0.6 fold; Fold of Basal RLU [10]: 0.7 fold and 0.5 fold; Fold of Basal RLU [11]: 0.7 and 1.4 and 0.9; Fold of Basal RLU [12]: 1.6 and 1.3; Fold of Basal RLU [13]: 0.9 and 0.7 and 0.6; Fold of Basal RLU [14]: 0.4 and 0.5; Fold of Basal RLU [15]: 0.8 fold and 1.5 fold and 0.9 fold; Fold of Basal RLU [16]: 0.9 and 0.8 and 1; Fold of Basal RLU [17]: 1.2 fold and 1.4 fold and 0.8 fold; Fold of Basal RLU [18]: 0.6 fold and 0.7 fold and 0.5 fold; Fold of Basal RLU [19]: 1.7 and 1.4 and 1 and 1.6; Fold of Basal RLU [20]: 0.5 fold and 0.9 fold and 0.6 fold; Fold of Basal RLU [21]: 1.4 fold and 2 fold and 2.5 fold and 2.8 fold; Fold of Basal RLU [22]: 0.9 and 1.2 and 1.6 and 1; Fold of Basal RLU [23]: 0.5 and 0.6 and 0.3; Fold of Basal RLU [24]: 0.7 and 0.6 and 0.5; Fold of Basal RLU [25]: 0.7 and 0.4 and 0.6; Fold of Basal RLU [26]: 0.9 fold and 1.4 fold and 1.3 fold

Q: For `COC(=O)[C@@](C)(NC(=O)c1cc(C)n(-c2cccc(C(F)(F)F)c2)n1)c1cccs1` [‘1350], which “Fold of Basal RLU” value [27] is on record?
A: Its value is 1.3 and 0.9 and 1.

Q: What about the “Fold of Basal RLU” value [28] of the same compound?
A: Its value is 0.7 and 0.6.

Q: What about the “Fold of Basal RLU” value [29] of the same compound?
A: Its value is 0.9 and 1 and 1.1.

Q: What about the “Fold of Basal RLU” value [30] of the same compound?
A: The value was 0.4 and 0.5 and 0.8.

Q: And the “Fold of Basal RLU” value [31]?
A: The value was 0.9 and 0.7 and 0.8 and 1.1.

Q: And the “Fold of Basal RLU” value [32]?
A: Its value is 0.6 and 0.7 and 0.9 and 0.5.

Q: And the “Fold of Basal RLU” value [33]?
A: Its value is 1.3 and 0.8 and 1.2.

Q: What about the “Fold of Basal RLU” value [34] of the same compound?
A: Its value is 1.2 and 1 and 1.1.

Q: And the “Fold of Basal RLU” value [35]?
A: Its value is 0.7 fold and 1 fold and 1.1 fold and 1.4 fold.

Q: And the “Fold of Basal RLU” value [36]?
A: The value was 1.6 fold and 1.4 fold and 2.4 fold and 1.5 fold.

Q: What about the “Fold of Basal RLU” value [37] of the same compound?
A: Its value is 0.6 and 0.8 and 1.1.
